In patent US6753337B2, “Alkynyl containing hydroxamic acid compounds as matrix metalloproteinase/tace inhibitors” (Wyeth Holdings Corporation, priority 1999, dated 2004):
Counter-ions that a name gives are not always drawn.

How the values were obtained:
MMP-13 = MMP-13 (Homo sapiens, UniProt P45452); test: MMP-13 inhibition (thiopeptide or fluorescent peptide substrate); type: biochemical; settings: read-out: MMP13 IC50
How it was run: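 Human recombinant MMP-1, MMP-9 or MMP-13 was run either with a thiopeptide substrate plus DTNB (1 mM working dilution) in 50 mM HEPES pH 7.5, 5 mM CaCl2 (colorimetric), or with a quenched fluorescent peptide in HCBC buffer pH 7.0. Reactions started with substrate; the rate slope was compared with control by Dunnett's test.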

[1] = target: TNF-α converting enzyme (TACE) (Homo sapiens, UniProt P78536); test: Test procedure for measuring TACE inhibition (fluorescent peptidyl substrate); type: biochemical
TNF-α converting enzyme (TACE), sequence (P78536 215-824): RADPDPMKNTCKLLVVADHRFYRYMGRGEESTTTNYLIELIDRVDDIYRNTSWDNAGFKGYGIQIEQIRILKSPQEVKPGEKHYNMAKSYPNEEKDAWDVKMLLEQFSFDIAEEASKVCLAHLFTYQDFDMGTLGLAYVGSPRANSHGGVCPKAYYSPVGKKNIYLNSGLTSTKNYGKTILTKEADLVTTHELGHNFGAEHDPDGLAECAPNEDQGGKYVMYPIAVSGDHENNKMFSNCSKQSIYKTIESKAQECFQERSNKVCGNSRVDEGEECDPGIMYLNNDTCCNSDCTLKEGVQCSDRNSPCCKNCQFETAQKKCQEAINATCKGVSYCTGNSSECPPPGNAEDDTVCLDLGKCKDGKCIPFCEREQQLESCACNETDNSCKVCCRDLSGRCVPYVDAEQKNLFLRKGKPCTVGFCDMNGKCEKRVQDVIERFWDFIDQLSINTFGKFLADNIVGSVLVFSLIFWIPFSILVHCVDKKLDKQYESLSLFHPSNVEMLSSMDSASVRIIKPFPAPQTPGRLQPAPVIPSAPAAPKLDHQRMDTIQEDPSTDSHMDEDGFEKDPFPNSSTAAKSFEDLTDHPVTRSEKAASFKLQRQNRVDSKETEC
How it was run: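 TACE (1 μg/mL final) preincubated 10 min at room temperature with 1 μM compound in 10 mM Tris pH 7.4, 10% glycerol, DMSO <1%. Treated rates tested against control by Dunnett's test (p<0.05).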

Row | Structure (SMILES) | IC50 (MMP-13) [nM] | IC50 [1] [nM]
1 | CC#CCOc1ccc(S(=O)(=O)CC2(C(=O)NO)CCN(C(=O)C3(C)COC(C)(C)OC3)CC2)cc1 [Example 42, 4-({[4-(2-Butynyloxy)phenyl]sulfonyl}methyl)-N-hydroxy-1-[(2,2,5-trimethyl-1,3-dioxan-5-yl)carbonyl]-4-piperidinecarboxamide] | 1630 | 12
2 | CC#CCOc1ccc(S(=O)(=O)CC2(C(=O)NO)CCN(C(=O)C(C)(CO)CO)CC2)cc1 [Example 43, 4-({[4-(2-Butynyloxy)phenyl]sulfonyl}methyl)-N-hydroxy-1-[3-hydroxy-2-(hydroxymethyl)-2-methylpropanoyl]-4-piperidinecarboxamide] | 1640 | 13
3 | CC#CCOc1ccc(S(=O)(=O)CC2(C(=O)NO)CCN(C(=N)N)CC2)cc1 [Example 44] | 2380 | 56
4 | CC#CCOc1ccc(S(=O)(=O)CC2(C(=O)NO)CCN(CC#CCO)CC2)cc1 [Example 45] | 423 | 25
5 | CC#CCOc1ccc(S(=O)(=O)C2(C(=O)NO)CCN(S(=O)(=O)c3ccc(OC)cc3)CC2)cc1 [Example 72, 4-(4-but-2-ynyloxybenzenesulfonyl)-N-hydroxy-1-[(4-methoxyphenyl)-sulfonyl]-4-piperidinecarboxamide] | 369 | 221
6 | CC#CCOc1ccc(S(=O)(=O)C2(C(=O)NO)CCNCC2)cc1 [Example 76, 4-{[4-(2-butynyloxy)phenyl]sulfonyl}-N-hydroxy-4-piperidinecarboxamide hydrochloride] | 4020 | 201
7 | CC#CCOc1ccc(S(=O)(=O)C2(C(=O)NO)CCN(Cc3ccc(C(=O)OC)cc3)CC2)cc1 [Example 77, hydrochloride] | 349 | 114
8 | CC#CCOc1ccc(S(=O)(=O)C2(C(=O)NO)CCN(Cc3ccc(C(=O)O)cc3)CC2)cc1 [Example 78, 4-({4-{[4-(2-butynyloxy)phenyl]sulfonyl}-4-[(hydroxyamino)-carbonyl]-1-piperidinyl}methyl)benzoic acid hydrochloride] | 73.7 | 64.5
9 | CC#CCOc1ccc(S(=O)(=O)C2(C(=O)NO)CCN(Cc3ccc(C(N)=O)cc3)CC2)cc1 [Example 79, 1-[4-(Aminocarbonyl)benzyl]-4-{[4-(2-butynyloxy)phenyl]sulfonyl}-N-hydroxy-4-piperidinecarboxamide hydrochloride] | 50.6 | 70
10 | CC#CCOc1ccc([S+]([O-])C2(C(=O)NO)CCN(C(=O)OC(C)(C)C)CC2)cc1 (centres unmarked) [Example 80, tert-butyl 4-{[4-(but-2-ynyloxy)phenyl]sulfinyl}-4-[(hydroxyamino)carbonyl]piperidine-1-carboxalate] | 40 | 90
11 | CC#CCOc1ccc([S+]([O-])C2(C(=O)NO)CCNCC2)cc1 (centres unmarked) [Example 81, 4-(4-(But-2-ynyloxy-benzenesulfinyl)-piperidine-4-carboxylic acid hydroxamide hydrochloride] | 593 | 277
12 | CC#CCOc1ccc([S+]([O-])C2(C(=O)NO)CCN(Cc3ccc(Br)cc3)CC2)cc1 (centres unmarked) [Example 82, 1-(4-Bromo-benzyl)-4-(4-But-2-ynyloxy-benzenesulfinyl)-piperidine-4-carboxylic acid hydroxamide hydrochloride] | 62 | 135

The remaining lines, values ahead:

Row | IC50 (MMP-13) [nM] | IC50 [1] [nM] | Structure (SMILES)
13 | 136 | 47 | CC#CCOc1ccc(S(=O)(=O)C2(C(=O)NO)CCN(C(C)=O)CC2)cc1 [Example 64, 1-Acetyl-4-(4-but-2-ynyloxybenzenesulfonyl)piperidine-4-carboxylic acid hydroxamide]
14 | 105 | 73 | CC#CCOc1ccc(S(=O)(=O)C2(C(=O)NO)CCN(C(=O)c3ccccc3)CC2)cc1 [Example 65, 1-Benzoyl-4-(4-but-2-ynyloxybenzenesulfonyl)piperidine-4-carboxylic acid hydroxamide]
15 | 81 | 106 | CC#CCOc1ccc(S(=O)(=O)C2(C(=O)NO)CCN(C(=O)c3ccc(OC)cc3)CC2)cc1 [Example 66, 1-(4-Methoxybenzoyl)-4-(4-but-2-ynyloxybenzenesulfonyl)piperidine-4-carboxylic acid hydroxamide]
16 | 345 | 72 | CC#CCOc1ccc(S(=O)(=O)C2(C(=O)NO)CCN(C(=O)N3CCCC3)CC2)cc1 [Example 67, 4-(4-But-2-ynyloxybenzenesulfonyl)-N-hydroxy-1-(pyrrolidine-1-carbonyl)-4-piperidinecarboxamide]
17 | 503 | 77 | CC#CCOc1ccc(S(=O)(=O)C2(C(=O)NO)CCN(C(=O)OCC)CC2)cc1 [Example 68, Ethyl 4-(4-but-2-ynyloxybenzenesulfonyl)-4-[(hydroxyamino)-carbonyl]-1-piperidinecarboxylate]
18 | 499 | 115 | CC#CCOc1ccc(S(=O)(=O)C2(C(=O)NO)CCN(S(=O)(=O)C(F)(F)F)CC2)cc1 [Example 69, 4-(4-But-2-ynyloxybenzenesulfonyl)-N-hydroxy-1-[(trifluoromethyl)-sulfonyl]-4-piperidinecarboxamide]
19 | 113 | 87 | CC#CCOc1ccc(S(=O)(=O)C2(C(=O)NO)CCN(C(=O)c3cccnc3)CC2)cc1 [Example 70, 4-(4-But-2-ynyloxybenzenesulfonyl)-N-hydroxy-1-(3-pyridinylcarbonyl)-4-piperidinecarboxamide]
20 | 183 | 113 | CC#CCOc1ccc(S(=O)(=O)C2(C(=O)NO)CCN(C(=O)c3cccs3)CC2)cc1 [Example 71, 4-(4-but-2-ynyloxybenzenesulfonyl)-N-hydroxy-1-(2-thienylcarbonyl)-4-piperidinecarboxamide]
21 | 287 | 132 | CC#CCOc1ccc(S(=O)(=O)C2(C(=O)NO)CCN(C(=O)C(C)(CO)CO)CC2)cc1 [Example 74, 4-(4-But-2-ynyloxybenzenesulfonyl)-N-hydroxy-1-[3-hydroxy-2-(hydroxymethyl)-2-methylpropanoyl]-4-piperidinecarboxamide]
22 | 284 | 134 | CC#CCOc1ccc(S(=O)(=O)C2(C(=O)NO)CCN(C(=O)OC(C)(C)C)CC2)cc1 [Example 75, Tert-butyl 4-{[4-(2-butynyloxy)phenyl]sulfonyl}-4-[(hydroxyamino)carbonyl-]-1-piperidinecarboxalate]
